From patent publication US11752122B2 (OKLAHOMA MEDICAL RESEARCH FOUNDATION, priority 2018, dated 2023)

Assays:
mouse model = settings: cited from earlier work
LDLR mice on HFD = settings: LDLR mice, very low concentration, preliminary unpublished data
Text: Mice. Hypercholesterolemic mice deficient for low-density lipoprotein receptors (Ldlr−/−), which only express ApoB-100 (Ldlr−/−Apob100/100, LDLR), were obtained from Jackson Laboratories (B6; 129SLdlrtm1HerApobtm2Sgy/J, stock no. 003000). WT C57bl/6 mice were also obtained from the Jackson Laboratory (stock no. 000664) and served as controls. TGF-β1^platelet-KO-LDLR mice (Pf4Cre+Tgfb1f/f;Ldlr−/−Apob100/100;) and TGF-β1^flox-LDLR littermate controls (Tgfb1f/f;Ldlr−/−Apob100/100) were generated by crossing LDLR mice with Pf4Cre+;Tgfb1f/f mice, as shown in FIGS. 7A-B and Supplemental Table 5. […] The inventor crossed Tie2Cre mice (stock no. 008863, Jackson Laboratories) with tdTomato lox-stop-lox mice (stock no. 007909, Jackson Laboratories) to generate Tie2Cre;tdTomato mice that express tdTomato only under Cre activity. All mice were housed in a controlled environment (23±2° C.; 12 hours light/dark cycles) and fed either a chow diet (CD) (PicoLab® Rodent Diet 20, 5053) or a customized high fat diet (HFD) (Harlan Teklad, TD.9612102. containing 21% milk fat (MF), 1.25% Cholesterol) in powdered form in a glass jar with perforated metal strainer (DYETS, Braintree Scientific Inc.). The Oklahoma Medical Research Foundation's Institutional Animal Care and Usage Committee approved all procedures.
Experimental Design. A total of 118 LDLR (58 Males, 60 Females) and 20 WT mice (10 Males, 10 Females) were used for this study. Half of the mice (6 weeks old) were switched to HFD and maintained for up to 9 months. Progression and severity (mild/moderate/severe) of AS were monitored at 0, 3, 6 and 9 months by echocardiography using non-invasive ultrasound imaging techniques. Five mice per cage (total of 25 males, 15 females) were treated with 2% N-acetylcysteine (NAC) (Acros Organics, 160280010) in drinking water. NAC was prepared in reverse osmosis water and its pH was adjusted to 7.4 with NaOH. Water was replaced with a fresh solution every week.
Echocardiography. Mice were anesthetized with Isoflurane (3-5% inhalation) in an induction chamber. Mice that appeared to be sick due to severe stenosis or that were underweight were anesthetized using a lower isoflurane level to prevent adverse or lethal effects from the anesthetic. Once visibly anesthetized, isoflurane was reduced to 0.5%-2% and the mouse was moved from the chamber to a nose-cone on a heated platform set at 40° C. to maintain body temperature (35±2° C.). Heavier mice were maintained at higher isoflurane levels as they appeared less sensitive to its anesthetic effects. All four limbs were taped to physiological electrodes and a rectal temperature probe was inserted. Electrode gel was used to enhance the physiologic readings. To ensure accuracy of all echo measurements, physiological parameters were monitored and recordings were only taken if the heart rate was 430-550 beats per minute, respiration was 20-100 breaths per minute, and body temperature was close to 37° C. (35±2° C.).
Measurement of AS parameters using a modified view of ultrasound imaging. Echocardiography is the gold standard non-invasive method to measure AS in humans. However, the mouse heart rate is 10-times faster (500 to 600 beats per minute), making the acquisition of high-resolution images of the very thin non-diseased valves challenging. […] LVOT was measured from the long-axis view and was used to calculate AV pressure and normalize the cusp separation (Lindman et al., 2016; Meyer et al., 2012). This view was obtained by tilting the lower left corner of the platform downward by about 30° and angling the transducer up such that it interfaced with the chest cavity by about 45°.

[1] = test system: ascending aortic constriction (AAC) model; experiment: Cardiac fibrosis in ascending aortic constriction (AAC) model; format: in vivo, mice; settings: WT C57Bl/6 mice, very low concentration, preliminary unpublished data
Text: Ascending Aortic Constriction. Ascending aortic constriction was induced by controlled constriction of the ascending aorta as described previously 26. Briefly, mice were anesthetized with 1.5% isoflurane and the ascending aorta was surgically exposed by a mid-thorax incision. A 2 7-0 suture was placed around both the aorta and an adjacent 27-gauge (0.41 mm OD) needle proximal to the origin of the innominate artery. […] Mice were sacrificed and tissues collected 1 month after the surgery.

[2] = 2007 study; cited from earlier work

CC(=O)N[C@@H](CSN=O)C(=O)O [SNOAC, S-nitroso-N-acetylcysteine]
hypoxia-like response in gene expression (mouse model; in vitro and in vivo): induced a hypoxia-like response | blood pressure in the lungs and right ventricle of the heart (pulmonary artery hypertension) (mouse model; mice treated with acetylcysteine, metabolite SNOAC): increased

Cc1cccc(-c2nn3c(c2-c2ccnc4ccc(C(N)=O)cc24)CCC3)n1 [galunisertive]
AS progression (LDLR mice on HFD): halted AS progression | cardiac fibrosis induced by ascending aortic constriction [1]: inhibited cardiac fibrosis

CC(C)c1nc(N(C)S(C)(=O)=O)nc(-c2ccc(F)cc2)c1/C=C/[C@@H](O)C[C@@H](O)CC(=O)O [rosuvastatin]
aortic stenosis progression [2]: slowing of aortic stenosis
